Data taken from US10138273B2, “Peptide ligands for hepatic stellate cells” (The Curators of the University of Missouri, priority 2015, dated 2018).
Where two headings read alike, the source gives them in different places. Ends that are not written are not given here.

Tests used:
LX 2 cells [1] = test: Cell viability (MTT) / apoptotic effect in LX 2 cells; assay type: cell-based, human
Experimental: (§1) LX 2 and HSC T6 (1×10^4 cells per well) cells were cultured in 96 well plates for 12 h in DMEM medium containing 10% FBS. The peptide 431/KLA fusion peptide, the mixture of peptide 431 and KLA peptide, and KIA peptide were incubated with the cells for 48 h. Cell viability was measured using MTT (3 (4,5 dimethylthiazol2 yi) 2,5 diphenyltetrazolium bromide) assay.
(§2) The proapoptotic peptide having the sequence of SEQ ID NO: 13, KLAKLAKKLAKLAK (KLA), is able to trigger mitochondrial disruption and induce cell death. However, the KLA peptide itself cannot enter cells to exert its proapoptotic activity. We therefore prepared a KLA/peptide 431 fusion peptide and examined its proapoptotic activity in LX 2 and HSC T6 cells.

HSCs = test: Biodistribution of siRNA nanocomplexes in rats and rats with liver fibrosis; assay type: in vivo, rat; settings: siRNA modified with Peptide-431 versus other delivery systems; tail vein, 0.065 mg/kg siRNA, 2 hrs
Experimental: The siRNA was labeled with Alexa Flour-647, and the nanocomplexes were prepared using neutravidin as we reported before. The free siRNA and nanocomplexes (SNCP, SNVP, SNPP) were injected into rats by tail vein at an siRNA dose of 0.065 mg/kg. After 2 hrs, the rats were sacrificed and the major organs including the liver, heart, lung, spleen, muscle, kidney, and blood were harvested for fluorescence imaging using a Xenogen IVIS imaging system.
The siRNA was labeled with Alexa Flour-647, and the nanocomplexes were prepared using neutravidin as we reported before. Liver fibrosis was inducted by injection of CCl4. The free siRNA and nanocomplexes (SNCP, SNVP, SNPP) were injected into rats with liver fibrosis by tail vein at an siRNA dose of 0.065 mg/kg. After 2 hrs, the rats were sacrificed and the major organs including the liver, heart, lung, spleen, muscle, kidney, and blood were harvested for fluorescence imaging using a small animal imaging system (Brunker MS FX Pro). FIG. 19 depicts images evaluating the biodistribution of free siRNA and the nanocomplexes in Rats with liver fibrosis.

HSC-T6 cells = test: Cellular uptake of siRNA nanocomplexes in HSC-T6 cells; assay type: cell-based, rat; settings: siRNA nanocomplex modified with Peptide-431 (SNPP) versus free siRNA, SNCP, SNVP, 50 nM siRNA
Experimental: (§3) The siRNA was labeled with Alexa Flour-647, and the nanocomplexes were prepared using neutravidin as we reported before. Approximately 100,000 cells (HSC-T6, LX-2)/well were seed into 24 well plate and incubator at 37 C for 12 hrs, free siRNA and nanocomplexes (SNCP, SNVP, SNPP) were then incubated with the cells at a final siRNA concentration of 50 nM. The fluorescence intensity of the cells at different intervals was detected by FACSCalibur Flow Cytometry (BD Biosciences, Franklin Lakes, N.J.). FIG. 17A depicts an evaluation of the cellular uptake of free siRNA and the nanocomplexes in HSC-T6 cells, and FIG. 17B depicts an evaluation of the cellular uptake of free siRNA and the nanocomplexes in LX-2 cells.

IGF2R [2] = target: T1, IGF2R (Homo sapiens, UniProt P11717); test: Specificity of peptide 431 to IGF2R: uptake in IGF2R-silenced LX 2 cells; assay type: cell-based; parameters: the expression of IGF2R in LX 2 cells was silenced using siRNA; endogenous in cells; host or cells: LX-2 human hepatic stellate cells; settings: for cellular uptake after silencing IGF2R with siRNA: LX 2, IGF2R siRNA versus scrambled siRNA
Experimental: In addition to affinity, we also evaluated the specificity of peptide 431 to IGF2R in LX 2 cells. For this purpose, the expression of IGF2R in LX 2 cells was silenced using siRNA As shown in FIGS. 11A-11B, the IGF2R siRNA (10 and 50 nM) dramatically knocked down the expression of IGF2R in LX 2 cells at the mRNA and protein levels.

[3] = test system: human hepatic stellate cells LX 2; test: Cellular uptake of 5 FAM labeled peptides in LX 2 cells (flow cytometry); assay type: cell-based; settings: for binding affinity compared to the control peptide and other selected peptides: LX 2 cells
Experimental: (§4) We examined cellular uptake of 5 FAM labeled peptides (425, 431, and 515) in human hepatic stellate cells LX 2 upon treatment with nonenzymatic cell dissociation solution and trypsin. […] We also evaluated the effect of incubation time on cellular uptake of the peptides. 5 FAM labeled peptide 431 was incubated with LX 2 cells for different incubation time points. […] Therefore, nonenzymatic cell dissociation solution and 1 h incubation time were selected to evaluate all the peptides (420, 422, 425, 431, 504, and 515) in human hepatic stellate cells LX 2 and rat hepatic stellate cells HSC T6.

HSC T6 cells [4] = test: Apparent equilibrium dissociation constant (Kd) on HSC T6 cells; assay type: binding, rat; settings: 5 FAM labeled peptide, 1 h at 37° C., flow cytometry
Experimental: (§5) We next measured the apparent equilibrium dissociation constants (Kd) of the peptides (422, 425, 431, and 515) to LX 2 and HSC T6 cells as shown in FIG. 10A and FIG. 10B, respectively. The cells were incubated with 5 FAM labeled peptides at different concentrations for 1 h at 37° C. The labeled cells were detected by flow cytometry, and the apparent Kd value was calculated using GraphPad Prism. […] The result is consistent with the cellular uptake result depicted in FIGS. 7A-7B, 8A-8G, and 9A-9G.

LX-2 cells = test: Cellular uptake of siRNA nanocomplexes in LX-2 cells; assay type: cell-based, human; settings: siRNA nanocomplex modified with Peptide-431 (SNPP) versus free siRNA, SNCP, SNVP, 50 nM siRNA
Experimental: as §3

[5] = test system: rat hepatic stellate cells HSC T6; test: Cellular uptake of 5 FAM labeled peptides in HSC T6 cells (flow cytometry); assay type: cell-based; settings: 1 h incubation; for binding affinity compared to the control peptide and other selected peptides: HSC T6 cells
Experimental: as §4

HSC T6 cells [6] = test: Cell viability (MTT) / apoptotic effect in HSC T6 cells; assay type: cell-based, rat; settings: HSC-T6, fused to peptide-431
Experimental: as §1, §2

IGF2R [7] = target: T1, IGF2R; test: Phage ELISA on recombinant human IGF2R protein; assay type: binding; parameters: conducted using recombinant human IGF2R extracellular domain protein (the first, third, and fifth rounds); settings: compared to peptide insertless control phage and other selected clones
Experimental: The binding affinity of the twenty-eight phages was evaluated by ELISA on recombinant human IGF2R protein. […] Additionally, the particular embodiment may include more specific aspects related to the materials and techniques employed by this method, which are described with more detail in the Experiment section below.
Twenty eight phage clones were randomly selected after the fourth and fifth rounds of biopanning and cultured in 1 mL of ER2738 bacteria (growing in early stage) at 37° C. for 4.5 h. Phage DNA was extracted, purified using the DNA clean system (Promega, Madison, Wis.), and then sequenced with an ABI Genetic Analyzer 3100 (Applied Biosystems, USA). The primer used for sequencing is SEQ ID NO: 14, 5′-CCCTCATAGTTAGCGTA ACG-3′. […] One of the phages was peptide insertless. In FIG. 3B, binding affinity of the selected phage clones encoding inserted peptides was evaluated by ELISA on recombinant human IGF2R protein.

LX 2 cells [8] = test: Serum protein binding study: uptake in LX 2 cells in media containing FBS; assay type: cell-based, human; settings: LX 2, OptiMEM and DMEM with FBS up to 10%
Source text: It is important to evaluate the stability of peptides in the presence of serum proteins, which may nonspecifically bind to IGF2R specific peptides. As a result, we evaluated the cellular uptake of 5 FAM labeled peptide 431 in LX 2 cells in the serum reduced medium OptiMEM and DMEM media containing different concentrations of FBS.

LX 2 cells [9] = test: Apparent equilibrium dissociation constant (Kd) on LX 2 cells; assay type: binding, human
Experimental: as §5
In order to improve the binding affinity of peptide 431, […] may have the molecular structure depicted in FIG. 16A. Affinity of the dimeric peptide 431 was evaluated in LX 2 cells as described above.

With “KLAKLAKKLAKLAK (proapoptotic peptide) [KLA peptide, reference compound]” the “apoptotic activity / cell death” value (LX 2 cells [1]; LX 2, 48 h, MTT) was “did not exhibit apoptotic activity”.

For “VHWDFRQWWQPS [Peptide-431, IGF2R-specific peptide ligand encoded by phage 431]”, the “uptake of proapoptotic KLA peptide” value (LX 2 cells [1]; LX-2, fused to peptide-431) was “enhances the uptake”, the “specificity for HSCs (biodistribution)” value (HSCs) was “highest specificity for HSCs” and the “cellular uptake of siRNA” value (HSC-T6 cells) was “highest cellular uptake of siRNA”. For the same substance, the “cellular uptake after silencing IGF2R with siRNA” value (IGF2R [2]; listed as peptide 431) was “lower uptake”, the “cellular uptake after silencing IGF2R with siRNA” value (IGF2R [2]; listed as peptide-431) was “significantly reduced” and the “specificity to IGF2R on LX 2 cells” value (IGF2R [2]; concluded from IGF2R silencing) was “high specificity”. The cellular uptake ([3]; 5 FAM labeled peptide, nonenzymatic cell dissociation solution, 1 h incubation, LX 2) was 62%, the “effect of incubation time on cellular uptake” value ([3]; LX 2, different incubation time points) was “time dependent increase” and the “binding affinity compared to the control peptide and other selected peptides” value ([3]; 1 h incubation) was “highest binding affinity”. The “binding affinity compared to the control peptide and other selected peptides” value ([3]; 1 h incubation, listed as Phage No. 431) was “greatest binding affinity”, the “effect of cell detachment method on cellular uptake” value ([3]; nonenzymatic cell dissociation solution versus trypsin, LX 2) was “higher cellular uptake in nonenzymatic cell dissociation solution” and the Kd (HSC T6 cells [4]) was 12.3 µM. The “cellular uptake of siRNA” value (LX-2 cells) was “highest cellular uptake of siRNA”, the cellular uptake ([5]; 5 FAM labeled peptide, nonenzymatic cell dissociation solution, HSC T6) was 12% and the “binding affinity compared to the control peptide and other selected peptides” value [5] was “highest binding affinity”. For the same substance, the “binding affinity compared to the control peptide and other selected peptides” value ([5]; listed as Phage No. 431) was “greatest binding affinity”, the “uptake of proapoptotic KLA peptide” value (HSC T6 cells [6]) was “enhances the uptake” and the “binding affinity to recombinant human IGF2R protein (phage ELISA)” value (IGF2R [7]) was “highest binding affinity”. For the same substance, the “binding affinity to recombinant human IGF2R protein (phage ELISA)” value (IGF2R [7]; listed as peptide-431) was “highest binding affinity and specificity” and the “cellular uptake in presence of FBS” value (LX 2 cells [8]) was “not significantly affected”.

With “dimeric peptide 431: dimer of Peptide-431 linked via a lysine, imaging agent coupled to the linker (FIG. 16A) (VHWDFRQWWQPS; also: dimer of two peptide chains linked via a lysine, imaging agent coupled to the linker)” the “improvement of binding affinity (Kd) of dimer compared to monomeric peptide 431” value (LX 2 cells [9]) was “approximately 9 fold” and the “improvement of binding affinity (Kd) of dimer compared to monomeric peptide 431” value (LX 2 cells [9]; listed as Dimerization of peptide-431) was “approximately 9 fold”.
